ChEMBL document CHEMBL1129240, “Synthesis of acyclo-C-nucleosides in the imidazo[1,2-a]pyridine and pyrimidine series as antiviral agents” (J Med Chem, 1996)
≈ marks a conversion by molar mass, not a printed value.

Tests used:
[1] = Cytotoxic concentration required to cause microscopically detectable alteration of normal cell morphology of E6SM cells; type: cell-based; conditions: human, read-out: CC50
[2] = (§1) Cytotoxic concentration required to cause microscopically detectable alteration of normal cell morphology of HeLa cells; type: cell-based; conditions: human, read-out: CC50
[3] = (§2) Cytotoxic concentration required to cause microscopically detectable alteration of normal cell morphology of Vero cells; type: cell-based; conditions: chlorocebus sabaeus, read-out: CC50
[4] = Cytotoxic concentration required to reduce CEM cell viability by 50%; type: cell-based; conditions: human, CCRF-CEM (CEM) cells
[5] = system: HeLa; assay: as §1; type: cell-based; conditions: Homo sapiens
[6] = system: Vero; assay: as §2; type: cell-based; conditions: Chlorocebus sabaeus
[7] = system: Human alphaherpesvirus 3; assay: Minimum Inhibition Concentration (MIC) for activity against Varicella-Zoster Virus(VZV) using YS(TK+) strain.; type: functional
[8] = system: Cytomegalovirus; assay: Minimum Inhibitory Concentration (MIC) tested for activity against Cytomegalovirus (CMV) using AD169 strain; type: functional; conditions: Human betaherpesvirus 5
[9] = Minimum cytotoxic concentration to reduce the HEL cell proliferation by 50%; type: cell-based; conditions: human, HEL cells; read-out: MCC
[10] = system: Human alphaherpesvirus 3; assay: Minimum Inhibitory Concentration (MIC) tested for activity against Varicella-Zoster Virus(VZV) using YS/R (TK-) strain.; type: functional
[11] = system: Human alphaherpesvirus 3; assay: Minimum Inhibitory Concentration (MIC) for activity against Varicella-Zoster Virus(VZV) using OKA (TK+) strain; type: functional
[12] = system: Cytomegalovirus; assay: Minimum Inhibitory Concentration (MIC) tested for activity against Cytomegalovirus (CMV) using Davis strain; type: functional; conditions: Human betaherpesvirus 5
[13] = system: Human alphaherpesvirus 3; assay: Minimum Inhibitory Concentration (MIC) tested for activity against Varicella-Zoster Virus(VZV) using 07/1 (TK-) strain.; type: functional
[14] = system: Human alphaherpesvirus 3; assay: Minimum Inhibition Concentration (MIC) for activity against Varicella-Zoster Virus (VZV) using YS/R (TK-) strain.; type: functional
[15] = system: Human alphaherpesvirus 3; assay: Minimum Inhibition Concentration (MIC) for activity against Varicella-Zoster Virus(VZV) using OKA (TK+) strain; type: functional
[16] = system: Cytomegalovirus; assay: Minimum Inhibition Concentration (MIC) for activity against Cytomegalovirus (CMV) using AD169 strain; type: functional; conditions: Human betaherpesvirus 5
[17] = system: Human alphaherpesvirus 3; assay: Minimum Inhibition Concentration (MIC) for activity against Varicella-Zoster Virus (VZV) using YS (TK+) strain.; type: functional
[18] = system: Cytomegalovirus; assay: Minimum Inhibition Concentration (MIC) for activity against Cytomegalovirus (CMV) using Davis strain; type: functional; conditions: Human betaherpesvirus 5
[19] = system: Human alphaherpesvirus 3; assay: Minimum Inhibitory Concentration (MIC) tested for activity against Varicella-Zoster Virus(VZV) using YS(TK+) strain.; type: functional
[20] = system: Human alphaherpesvirus 3; assay: Minimum Inhibition Concentration (MIC) for activity against Varicella-Zoster Virus(VZV) using YS/R (TK-) strain.; type: functional
[21] = Minimum cytotoxic concentration required to reduce human embryonic lung (HEL) cell proliferation by 50%; type: cell-based; conditions: human embryonic lung (HEL) cells, read-out: MCC
[22] = system: Human alphaherpesvirus 3; assay: Minimum Inhibition Concentration (MIC) for activity against Varicella-Zoster Virus(VZV) using YS/R (TK-) strain; type: functional
[23] = system: Human alphaherpesvirus 3; assay: Minimum Inhibition Concentration (MIC) for activity against Varicella-Zoster Virus(VZV) using YS(TK+) strain; type: functional
[24] = system: Human alphaherpesvirus 3; assay: Minimum Inhibition Concentration (MIC) for activity against Varicella-Zoster Virus(VZV) using 07/1 (TK-) strain.; type: functional
[25] = system: Human alphaherpesvirus 3; assay: Minimum Inhibition Concentration( MIC) for activity against Varicella-Zoster Virus(VZV) using 07/1 (TK-) strain.; type: functional
[26] = system: Human alphaherpesvirus 3; assay: Minimum Inhibition Concentration( MIC) for activity against Varicella-Zoster Virus(VZV) using YS/R (TK-) strain.; type: functional

Compound | MCC [1] | MCC [2] | MCC [3] | CC50 [4] | MIC [7] | MIC [8] | CC50 [9] | MIC [10] | MIC [11] | MIC [12] | MIC [13] | MIC [15] | MIC [19] | also measured
Cc1cccc2ncc(CSCc3ccccc3)n12 | 10 µg/mL | 40 µg/mL | 40 µg/mL | 9.9 µg/mL (≈ 36.9 µM) | – | – | – | – | – | – | – | – | – | –
CCCCOc1ccc(S(=O)(=O)[C@@](C)(Cc2ccc(OCCN3CCCCC3)cc2)C(=O)NO)cc1 | – | – | – | – | – | – | – | – | – | – | – | – | – | EC50 [5]: > 400 µg/mL; EC50 [6]: > 400 µg/mL
Cc1c(Br)c(C)n2c(CSCCO)cnc2c1Br | 100 µg/mL | > 200 µg/mL | > 200 µg/mL | 17 µg/mL (≈ 43.1 µM) | > 40 µg/mL | > 10 µg/mL | 70 µg/mL (≈ 178 µM) | > 10 µg/mL | > 40 µg/mL | > 10 µg/mL | > 40 µg/mL | – | – | –
Cc1ccn2c(CSCc3ccccc3)cnc2c1 | 100 µg/mL | 40 µg/mL | 40 µg/mL | 3.1 µg/mL (≈ 11.6 µM) | – | – | 45 µg/mL (≈ 168 µM) | – | – | – | – | 15 µg/mL (≈ 55.9 µM) | – | MIC [14]: 10 µg/mL (≈ 37.3 µM); MIC [16]: 3.5 µg/mL (≈ 13 µM); MIC [17]: 17 µg/mL (≈ 63.3 µM); MIC [18]: 3.5 µg/mL (≈ 13 µM)
Cc1cccc2ncc(CSCC(C)O)n12 (stereo unspecified) | 400 µg/mL | 100 µg/mL | > 400 µg/mL | 27 µg/mL (≈ 114 µM) | – | > 10 µg/mL | 90 µg/mL (≈ 381 µM) | 24 µg/mL (≈ 102 µM) | – | > 10 µg/mL | 24 µg/mL (≈ 102 µM) | 30 µg/mL (≈ 127 µM) | 20 µg/mL (≈ 84.6 µM) | –
Cc1ccn2c(CSCC(O)CO)cnc2c1 (stereo unspecified) | > 400 µg/mL | 400 µg/mL | > 400 µg/mL | > 100 µg/mL | – | > 50 µg/mL | > 100 µg/mL | 50 µg/mL (≈ 198 µM) | 100 µg/mL (≈ 396 µM) | > 50 µg/mL | – | – | > 100 µg/mL | –
CCSCc1cnc2c(C)cccn12 | 200 µg/mL | 10 µg/mL | 400 µg/mL | 4.1 µg/mL (≈ 19.9 µM) | – | 2 µg/mL (≈ 9.69 µM) | 35 µg/mL (≈ 170 µM) | – | 10 µg/mL (≈ 48.5 µM) | 2 µg/mL (≈ 9.69 µM) | 6.8 µg/mL (≈ 33 µM) | – | 5 µg/mL (≈ 24.2 µM) | MIC [20]: > 10 µg/mL
OCCSCc1cnc2ccccn12 | 400 µg/mL | 200 µg/mL | 400 µg/mL | 29 µg/mL (≈ 139 µM) | – | 40 µg/mL (≈ 192 µM) | – | – | 25 µg/mL (≈ 120 µM) | 35 µg/mL (≈ 168 µM) | – | – | – | CC50 [21]: > 100 µg/mL; MIC [22]: 25 µg/mL (≈ 120 µM); MIC [23]: 25 µg/mL (≈ 120 µM)
Cc1ccn2c(CSCCCO)cnc2c1 | > 100 µg/mL | 40 µg/mL | > 40 µg/mL | 17 µg/mL (≈ 71.9 µM) | > 40 µg/mL | 30 µg/mL (≈ 127 µM) | > 100 µg/mL | > 40 µg/mL | – | 30 µg/mL (≈ 127 µM) | – | > 40 µg/mL | – | MIC [24]: > 40 µg/mL
Cc1c(Br)c(C)n2c(CSCc3ccccc3)cnc2c1Br | > 40 µg/mL | > 100 µg/mL | > 40 µg/mL | 35 µg/mL (≈ 79.5 µM) | > 40 µg/mL | 1.7 µg/mL (≈ 3.86 µM) | > 100 µg/mL | – | – | 4 µg/mL (≈ 9.09 µM) | – | > 40 µg/mL | – | MIC [24]: 40 µg/mL (≈ 90.9 µM); MIC [20]: 40 µg/mL (≈ 90.9 µM)
c1ccc(CSCc2cnc3ncccn23)cc1 | 100 µg/mL | 40 µg/mL | 200 µg/mL | 4.2 µg/mL (≈ 16.4 µM) | – | 2 µg/mL (≈ 7.83 µM) | 40 µg/mL (≈ 157 µM) | – | 8.8 µg/mL (≈ 34.5 µM) | 2 µg/mL (≈ 7.83 µM) | 5 µg/mL (≈ 19.6 µM) | – | 2.4 µg/mL (≈ 9.4 µM) | MIC [20]: > 10 µg/mL
OCCCSCc1cnc2c(Cl)cc(C(F)(F)F)cn12 | 100 µg/mL | 100 µg/mL | > 100 µg/mL | 27 µg/mL (≈ 83.1 µM) | > 40 µg/mL | > 40 µg/mL | > 100 µg/mL | > 40 µg/mL | > 40 µg/mL | > 40 µg/mL | > 40 µg/mL | – | – | –
Cc1c(Br)cn2c(CSCCO)cnc2c1Br | > 200 µg/mL | > 100 µg/mL | > 40 µg/mL | 37 µg/mL (≈ 97.3 µM) | – | 20 µg/mL (≈ 52.6 µM) | 50 µg/mL (≈ 132 µM) | 20 µg/mL (≈ 52.6 µM) | 35 µg/mL (≈ 92.1 µM) | 30 µg/mL (≈ 78.9 µM) | – | – | > 40 µg/mL | MIC [24]: 22 µg/mL (≈ 57.9 µM)
CCSCc1cnc2cc(C)ccn12 | 40 µg/mL | 100 µg/mL | 200 µg/mL | 11 µg/mL (≈ 53.3 µM) | – | > 10 µg/mL | 35 µg/mL (≈ 170 µM) | – | > 10 µg/mL | 10 µg/mL (≈ 48.5 µM) | – | – | > 10 µg/mL | MIC [20]: > 10 µg/mL; MIC [25]: > 10 µg/mL
Cc1c(Br)cn2c(CSCc3ccccc3)cnc2c1Br | 40 µg/mL | 40 µg/mL | 40 µg/mL | 5 µg/mL (≈ 11.7 µM) | 1.8 µg/mL (≈ 4.22 µM) | – | 30 µg/mL (≈ 70.4 µM) | – | – | – | – | 2.7 µg/mL (≈ 6.34 µM) | – | MIC [16]: > 1 µg/mL; MIC [18]: 2 µg/mL (≈ 4.69 µM); MIC [24]: 2.3 µg/mL (≈ 5.4 µM); MIC [26]: 2 µg/mL (≈ 4.69 µM)
